In patent US20260374766A1, “METHODS FOR TREATING CANCER” (Antares Therapeutics, Inc., priority 2022, published 2026):
Like-named read-outs stand apart in the source and are kept apart here.

Experiments:
[1] = molecular target: T1, p53 Y220C mutant protein (amino acid residues 94-293) (Homo sapiens, UniProt P04637, Y220C); assay: Surface Plasmon Resonance (SPR) assay, Kd_kinetic; format: binding
T1 construct: p53 Y220C mutant protein (amino acid residues 94-293)
Method in brief: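 Biacore 8K SPR; 16 or 20 °C; Tris 50 mM pH 7.5, NaCl 100 mM, DTT 1 mM, Brij35 0.01%, Tween-20 0.05%, DMSO 1%. Kd_kinetic by 1:1 fit.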

[2] = molecular target: T1, p53 Y220C mutant protein (amino acid residues 94-293); assay: Thermal Shift Assay (TSA), dTM; format: binding; conditions: thermal shift; for ΔTm at 10 µM: 10 uM compound, read-out: TSA P53 Y220C dTM (10 uM); for ΔTm at 100 µM: 100 uM compound, read-out: TSA P53 Y220C dTM (100 uM)
Method in brief: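 5 μM p53 Y220C (residues 94-293) incubated 3 h at 20 °C with 10 μM or 100 μM compound in 20 mM HEPES pH 7.4, 100 mM NaCl, 0.01% Pluronic F-127, 1% DMSO plus Sypro Orange. Melt from 30 to 50 °C at 0.03 °C/s; TM from Boltzmann two-state fit.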

[3] = molecular target: p53 Y220C (Homo sapiens, UniProt P04637, Y220C); assay: Luciferase Reporter Assay (Luc), p53 response element, NClH1299 cells with inducible p53 Y220C; format: cell-based; conditions: for Emax: 10 uM tool compound as positive control
Method in brief: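 H1299 cells induced with 0.5 ug/mL doxycycline for 24 hours, then exposed to compound for 6 hours. p53 response-element luciferase read by One-Glo luminescence after 5 min shaking at room temperature.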

[4] = system: NUGC3 p53 Y220C; assay: Cell Proliferation Assay (CellTiter-Glo, CTG), NUGC3 p53 Y220C; format: cell-based; conditions: Homo sapiens, NUGC-3, 120 h, CellTiter-Glo, NUGC3 p53 Y220C, 5 days
Method in brief: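 Tet-One inducible p53 Y220C or R273H constructs were stably introduced into NCI-H1299 by lentiviral transduction; NUGC3 was used as is. Cells (250-500 per well) were exposed to compound for 5 days, then CellTiter-Glo was added for 10 min at room temperature and IC50 was calculated from luminescence.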

[5] = system: H1299 p53 Y220C; assay: Cell Proliferation Assay (CellTiter-Glo, CTG), H1299 p53 Y220C (NClH1299-inducible p53 Y220C); format: cell-based; conditions: Homo sapiens, NCI-H1299, 120 h, CellTiter-Glo, H1299 p53 Y220C, 5 days
Method in brief: (§1)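 NClH1299 lines stably transduced with Tet-inducible p53 Y220C or R273H, plus NUGC3, were treated with compound for 5 days at 250-500 cells/well. IC50 derived from CellTiter-Glo luminescent signal after 10 min room-temperature incubation.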

[6] = system: H1299 p53 R273H; assay: Cell Proliferation Assay (CellTiter-Glo, CTG), H1299 p53 R273H (NClH1299-inducible p53 R273H); format: cell-based; conditions: Homo sapiens, NCI-H1299, 120 h, CellTiter-Glo, H1299 p53 R273H, 5 days
Method in brief: as §1

[7] = SPR, kinetic KD, p53 Y220C, read-out: SPR P53 Y220C KD kinetic
[8] = luciferase reporter, NClH1299 inducible p53 Y220C, 6 hour
[9] = luciferase reporter, NClH1299 inducible p53 Y220C, 6 hour, read-out: Luc P53 Y220C AC50
[10] = read-out: SPR P53 Y220C KD kinetic

SMILES | Kd [1, 7] [µM] | ΔTm at 10 µM [2] [°C] | ΔTm at 100 µM [2] [°C] | Emax [3, 8] [%] | AC50 [3, 9] [µM] | IC50 [4] [µM] | IC50 [5] [µM] | IC50 [6] [µM] | Kd [1] [µM] | AC50 [3] [µM] | Kd [1, 10] [µM]
CNC(=O)c1ccc(OC)c(NCC#Cc2nc3c(N[C@@H]4CCNC[C@@H]4F)cccn3c2SC(F)F)n1 [Example 193] | 0.01 to 0.1 | ≥ 10 | ≥ 10 | 70 to 80 | < 0.75 | < 0.75 | < 0.75 | 8 to 10 |  |  | 
CNC(=O)c1ccc(OC)c(NCC#Cc2nn3c(N[C@@H]4CCN(C)C[C@@H]4F)cccc3c2SC(F)F)c1 [Example 194] | < 0.01 | ≥ 10 | 5 to 10 | > 90 | < 0.75 | < 0.75 | < 0.75 | 5 to 8 |  |  | 
CNC(=O)c1ccc(OC)c(NCC#Cc2nn3c(N[C@@H]4CCNC[C@@H]4F)cccc3c2SC(F)F)c1 [Example 195] | < 0.01 | ≥ 10 | ≥ 10 | 80 to 90 | < 0.75 | < 0.75 | < 0.75 | 5 to 8 |  |  | 
CNC(=O)c1ccc(NCC#Cc2cc3c(N[C@@H]4CCN(C)C[C@@H]4F)nccn3c2SC(F)F)c(OC)c1 [Example 196, 4-[(3-{6-[(difluoromethyl)sulfanyl]-1-{[(3S,4R)-3-fluoro-1-methylpiperidin-4-yl]amino}pyrrolo[1,2-a]pyrazin-7-yl}prop-2-yn-1-yl)amino]-3-methoxy-N-methylbenzamide; formic acid] | < 0.01 | ≥ 10 | ≥ 10 | > 90 | < 0.75 | < 0.75 | < 0.75 | ≥ 10 |  |  | 
CNC(=O)c1ccc(NCC#Cc2nc3c(NCC4(F)CNC4)cccn3c2SC(F)(F)F)c(OC)c1 [Example 197] | 0.01 to 0.1 | 5 to 10 | ≥ 10 | 80 to 90 | > 3 | > 3 | > 3 | ≥ 10 |  |  | 
CNC(=O)c1ccc(OC)c(NCC#Cc2nc3c(N[C@@H]4C[C@H]5CC[C@@H]([C@@H]4F)N5C)cccn3c2SC(F)(F)F)c1 [Example 199] | < 0.01 | ≥ 10 | ≥ 10 | 70 to 80 | < 0.75 | < 0.75 | < 0.75 | < 5 |  |  | 
CNC(=O)c1ccc(OC)c(NCC#Cc2nc3c(N[C@H]4C[C@@H]5CC[C@H]([C@H]4F)N5C)cccn3c2SC(F)(F)F)c1 [Example 200] | < 0.01 | ≥ 10 | ≥ 10 | 70 to 80 | < 0.75 | < 0.75 | < 0.75 | ≥ 10 |  |  | 
CNC(=O)c1ccc(NCC#Cc2nc3c(N[C@H]4C[C@@H]5CC[C@@H](N5)[C@H]4F)cccn3c2SC(F)(F)F)c(OC)c1 [Example 201] | < 0.01 | ≥ 10 | ≥ 10 | 80 to 90 | < 0.75 | < 0.75 | < 0.75 | 5 to 8 |  |  | 
CNC(=O)c1ccc(OC)c(NCC#Cc2nc3c(N[C@@H]4C[C@H]5CC[C@H](N5)[C@@H]4F)cccn3c2SC(F)(F)F)c1 [Example 202] | < 0.01 | ≥ 10 | ≥ 10 | 70 to 80 | < 0.75 | < 0.75 | < 0.75 | 8 to 10 |  |  | 
CNC(=O)c1ccc(OC)c(NCC#Cc2nc3c(N[C@H]4C[C@@H]5CC[C@@H](N5)[C@H]4F)cccn3c2SC(F)(F)F)c1 [Example 203] | < 0.01 | ≥ 10 | ≥ 10 | 70 to 80 | < 0.75 | < 0.75 | < 0.75 | 5 to 8 |  |  | 
CNC(=O)c1ccc(OC)c(NCC#Cc2nc3c(NC4CC5(C4)CN(CC(F)F)C5)cccn3c2SC(F)(F)F)c1 [Example 204] |  | 5 to 10 | ≥ 10 | > 90 |  | 0.75 to 1.5 | 0.75 to 1.5 | ≥ 10 | < 0.01 | 0.75 to 1.5 | 
CNC(=O)c1ccc(NCC#Cc2nc3c(N[C@@H]4CCN(C)C[C@@H]4F)nccn3c2SC(F)(F)F)c(OC)c1 [Example 206, 4-{[3-(8-{[(3S,4R)-3-fluoro-1-methylpiperidin-4-yl]amino}-3-[(trifluoromethyl)sulfanyl]imidazo[1,2-a]pyrazin-2-yl)prop-2-yn-1-yl]amino}-3-methoxy-N-methylbenzamide] | < 0.01 | ≥ 10 | ≥ 10 | > 90 | < 0.75 | < 0.75 | < 0.75 | ≥ 10 |  |  | 
CNC(=O)c1ccc(OC)c(NCC#Cc2cc3c(N[C@@H]4CCN(C)C[C@@H]4F)nccn3c2SC(F)(F)F)n1 [Example 207] | < 0.01 | ≥ 10 |  | > 90 | < 0.75 | < 0.75 | < 0.75 | ≥ 10 |  |  | 
CNC(=O)c1ccc(OC)c(NCC#Cc2nc3c(N[C@@H]4CCN(C)C[C@@H]4F)nccn3c2SC(F)(F)F)c1 [Example 212] | < 0.01 | ≥ 10 |  | 80 to 90 | < 0.75 | < 0.75 | < 0.75 | ≥ 10 |  |  | 
CNC(=O)c1ccc(OC)c(NCC#Cc2nc3c(N[C@@H]4CCN(C)C[C@@H]4F)cccn3c2CC(F)(F)F)n1 [Example 213] |  | ≥ 10 | ≥ 10 | 70 to 80 | < 0.75 | < 0.75 | < 0.75 | ≥ 10 |  |  | < 0.01
CNC(=O)c1ccc(NCC#Cc2nn3c(N[C@@H]4CCN(C)C[C@@H]4F)nccc3c2SC(F)F)c(OC)c1 [Example 215] | < 0.01 | ≥ 10 |  | > 90 | < 0.75 | < 0.75 | < 0.75 | ≥ 10 |  |  | 
CNC(=O)c1ccc(OC)c(NCC#Cc2nc3c(N[C@@H]4CCNC[C@@H]4F)cccn3c2SC(F)(F)F)n1 [Example 217] |  | ≥ 10 | ≥ 10 | 70 to 80 | < 0.75 | < 0.75 | < 0.75 | 5 to 8 |  |  | < 0.01
CNC(=O)c1ccc(OC)c(NCC#Cc2nc3c(N[C@@H]4CCNC[C@@H]4F)cccn3c2SC(F)(F)F)c1 [Example 218] | < 0.01 | ≥ 10 | ≥ 10 | 80 to 90 | < 0.75 | < 0.75 | < 0.75 | ≥ 10 |  |  | 
CNC(=O)c1ccc(NCC#Cc2nn3c(N[C@@H]4CCN(C)C[C@@H]4F)cccc3c2SC(F)F)c(OC)c1 [Example 219, 4-[(3-{3-[(difluoromethyl)sulfanyl]-7-{[(3S,4R)-3-fluoro-1-methylpiperidin-4-yl]amino}pyrazolo[1,5-a]pyridin-2-yl}prop-2-yn-1-yl)amino]-3-methoxy-N-methylbenzamide] | < 0.01 | 5 to 10 | 5 to 10 | 80 to 90 | < 0.75 | < 0.75 | < 0.75 | 5 to 8 |  |  | 
CNC(=O)c1ccc(OC)c(NCC#Cc2nc3c(N[C@@H]4CCNC[C@@H]4F)cccn3c2CC(F)(F)F)c1 [Example 222] | < 0.01 | ≥ 10 | ≥ 10 | < 70 | > 3 | < 0.75 | 1.5 to 3 | ≥ 10 |  |  | 
